The target of the assay is T1, AbnA-WT (Geobacillus stearothermophilus, UniProt B3EYN2).
T1 sequence (B3EYN2 29-848): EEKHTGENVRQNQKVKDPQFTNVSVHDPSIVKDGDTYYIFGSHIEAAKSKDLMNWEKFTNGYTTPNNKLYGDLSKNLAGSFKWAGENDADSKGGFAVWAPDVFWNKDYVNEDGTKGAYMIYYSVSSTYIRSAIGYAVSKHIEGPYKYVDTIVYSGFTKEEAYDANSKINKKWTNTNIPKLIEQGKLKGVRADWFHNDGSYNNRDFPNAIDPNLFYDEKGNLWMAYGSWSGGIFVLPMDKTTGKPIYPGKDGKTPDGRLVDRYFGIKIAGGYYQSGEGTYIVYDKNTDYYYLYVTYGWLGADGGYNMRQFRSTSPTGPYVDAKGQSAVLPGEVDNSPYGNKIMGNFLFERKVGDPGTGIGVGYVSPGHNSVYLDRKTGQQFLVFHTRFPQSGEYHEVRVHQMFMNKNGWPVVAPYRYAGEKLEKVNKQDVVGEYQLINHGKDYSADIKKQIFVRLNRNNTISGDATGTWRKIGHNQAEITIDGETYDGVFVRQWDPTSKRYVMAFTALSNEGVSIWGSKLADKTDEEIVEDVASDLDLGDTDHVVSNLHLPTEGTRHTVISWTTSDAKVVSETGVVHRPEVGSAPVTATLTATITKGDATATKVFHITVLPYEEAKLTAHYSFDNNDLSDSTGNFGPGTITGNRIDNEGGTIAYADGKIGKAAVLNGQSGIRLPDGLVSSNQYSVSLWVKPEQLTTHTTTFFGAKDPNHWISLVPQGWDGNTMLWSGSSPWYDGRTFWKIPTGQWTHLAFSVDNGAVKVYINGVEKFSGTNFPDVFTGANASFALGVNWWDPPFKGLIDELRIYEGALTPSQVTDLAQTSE
Briefly: X-ray crystal structure, soaked crystal, […] A. The format is binding. The settings on record: bound in Domain4 (CBM-like) cleft, not in the active site; 5 mM soak ~30 s; 70% occupancy.

For the molecule `OC[C@@H]1O[C@@H](OC[C@@H]2O[C@@H](OC[C@@H]3O[C@@H](OC[C@@H]4O[C@@H](OC[C@@H]5OC(O)[C@H](O)[C@H]5O)[C@H](O)[C@H]4O)[C@H](O)[C@H]3O)[C@H](O)[C@H]2O)[C@H](O)[C@H]1O` (stereo partly shown) [A5, arabinopentaose], the “X-ray crystal structure, soaked crystal, 2.95 A” value was “extra density was observed in Domain4, and this could be clearly modelled as an arabinopentaose molecule”.

Source of the values: article PMC9110388, “Integrative structure determination reveals functional global flexibility for an ultra-multimodular arabinanase” (Communications Biology, 2022).
